# Read-outs that look alike come from different tables or passages of the source.
# T1: Orpinomyces sp. strain PC-2 β-glucosidase BglA, recombinant, secreted from S. cerevisiae, SEQ ID NO:2 (Orpinomyces sp. PC-2, UniProt Q9UUQ3)
# T1 sequence (Q9UUQ3 17-657): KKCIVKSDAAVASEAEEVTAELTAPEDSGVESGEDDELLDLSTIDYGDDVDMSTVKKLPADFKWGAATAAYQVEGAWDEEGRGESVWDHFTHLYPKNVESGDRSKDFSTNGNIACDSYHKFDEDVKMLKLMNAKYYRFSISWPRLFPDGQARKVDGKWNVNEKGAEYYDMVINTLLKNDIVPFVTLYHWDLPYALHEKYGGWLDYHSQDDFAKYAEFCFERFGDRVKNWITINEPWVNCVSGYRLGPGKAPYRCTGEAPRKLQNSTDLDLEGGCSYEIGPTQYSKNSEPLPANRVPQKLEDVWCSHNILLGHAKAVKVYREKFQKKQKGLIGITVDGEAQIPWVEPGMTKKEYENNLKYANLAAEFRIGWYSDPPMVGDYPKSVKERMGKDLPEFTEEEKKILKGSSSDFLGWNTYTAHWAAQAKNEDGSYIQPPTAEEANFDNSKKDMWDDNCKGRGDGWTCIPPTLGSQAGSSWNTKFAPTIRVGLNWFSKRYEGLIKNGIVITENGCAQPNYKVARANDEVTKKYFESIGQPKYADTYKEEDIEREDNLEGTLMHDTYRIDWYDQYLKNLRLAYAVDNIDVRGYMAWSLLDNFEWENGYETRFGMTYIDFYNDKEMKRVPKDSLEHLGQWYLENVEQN
# Key:
# [1] = test system: native β-glucosidase of Orpinomyces PC-2; conditions: Chen et al. (1994), cited from earlier work
# [2] = target: T1, Orpinomyces sp. strain PC-2 β-glucosidase BglA, recombinant, secreted from S. cerevisiae, SEQ ID NO:2; assay: Kinetic parameters of purified secreted recombinant BglA (Lineweaver-Burk plots); format: biochemical
# Protocol: (§1) β-Glucosidase (.rho.-nitrophenyl-β-D-glucosidase [.rho.NPGase]) and cellobiase activities were determined by the following standard procedures. With .rho.-nitrophenyl-β-D-glucoside (.rho.NPG) as the substrate, the reaction mixture of 1.2 ml contained 0.3 ml of appropriately diluted enzyme solution, 0.6 ml of 50 mM sodium phosphate buffer, pH 6.0, and 0.3 ml of 12 mM .rho.NPG. The reaction was carried out for 10 min at 40° C. and stopped by the addition of 2.4 ml of 1M Na2 CO3. The liberated .rho.-nitrophenol was measured spectrophotometrically at 405 nm [Herr et al. (1978) Appl. Microbiol. Biotechnol. 5:29-36; Chen et al. (1992) Biochem. Biophys. Acta. 1121:54-60]. Cellobiase activity was determined by using a reaction mixture of 2 ml containing 1 ml of appropriately diluted enzyme solution in 50 mM sodium phosphate buffer, pH 6.0, and 1 ml of 2 mM cellobiose. The reaction was carried out at 40° C. for 30 min and was stopped by placing the assay tubes in boiling water for 5 min. Liberated glucose was measured with a glucose determination kit (Sigma Chemical Co., St. Louis, Mo.) according to the manufacturer's instructions. One unit of β-glucosidase or cellobiase activity is defined as the amount of enzyme required to hydrolyze 1 μmole of substrate per min. Specific activity is expressed as unit per milligram of protein. […]
# [3] = test system: β-glucosidase from T. reesei; conditions: Chen et al. (1992), cited from earlier work
# [4] = target: β-glucosidase from Aspergillus niger (Aspergillus niger, UniProt A2RAL4); conditions: read-out: Cellobiose affinity (Km); Hoh et al. (1992); cited from earlier work
# Sequence of β-glucosidase from Aspergillus niger (A2RAL4 20-860): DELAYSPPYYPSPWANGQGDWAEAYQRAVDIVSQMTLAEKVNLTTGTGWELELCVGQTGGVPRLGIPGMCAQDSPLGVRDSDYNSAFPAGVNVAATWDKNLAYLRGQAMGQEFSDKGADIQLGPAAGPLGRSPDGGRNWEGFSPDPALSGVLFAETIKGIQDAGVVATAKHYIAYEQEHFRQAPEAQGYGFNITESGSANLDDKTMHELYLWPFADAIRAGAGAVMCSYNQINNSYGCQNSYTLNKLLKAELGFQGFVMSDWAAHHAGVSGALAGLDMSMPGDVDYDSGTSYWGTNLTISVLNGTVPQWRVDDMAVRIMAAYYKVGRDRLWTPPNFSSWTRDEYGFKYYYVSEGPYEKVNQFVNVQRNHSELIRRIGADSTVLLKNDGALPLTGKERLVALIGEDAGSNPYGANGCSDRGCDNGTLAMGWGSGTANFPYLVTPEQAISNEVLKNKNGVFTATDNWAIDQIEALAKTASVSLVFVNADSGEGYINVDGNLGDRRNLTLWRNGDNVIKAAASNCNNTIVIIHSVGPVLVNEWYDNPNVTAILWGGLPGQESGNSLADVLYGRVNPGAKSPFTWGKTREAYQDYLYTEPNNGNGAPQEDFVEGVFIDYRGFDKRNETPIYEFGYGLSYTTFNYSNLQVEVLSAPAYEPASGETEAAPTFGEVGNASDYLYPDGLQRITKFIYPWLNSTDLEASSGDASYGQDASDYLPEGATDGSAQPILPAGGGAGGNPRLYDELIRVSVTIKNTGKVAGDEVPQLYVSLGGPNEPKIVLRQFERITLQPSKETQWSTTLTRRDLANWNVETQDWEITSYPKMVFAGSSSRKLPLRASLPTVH
# [5] = test system: β-glucosidase from Aspergillus nidulans; conditions: Kwon et al. (1992), cited from earlier work
# [6] = test system: β-glucosidase from Aureobasidium pullulans; conditions: Saha et al. (1995), cited from earlier work
# [7] = test system: β-glucosidase from Thermotoga sp; conditions: Ruthersmith and Daniel (1993), cited from earlier work
# [8] = test system: β-glucosidase from Sporotrichum thermophile; conditions: Bhat et al. (1993), cited from earlier work
# [9] = test system: β-glucosidase from Clostridium thermocellum; conditions: Katayeva et al. (1992); read-out: Cellobiose affinity (Km); cited from earlier work
# [10] = substrate: O=[N+]([O-])c1ccc(O[C@@H]2O[C@H](CO)[C@@H](O)[C@H](O)[C@H]2O)cc1; assay: Kinetic parameters of purified secreted recombinant BglA (Lineweaver-Burk plots); format: biochemical, Orpinomyces sp. strain PC-2; conditions: other: 40° C. and pH 6.0
# Protocol: as §1
# [11] = substrate: OC[C@H]1O[C@@H](O[C@H]2[C@H](O)[C@@H](O)C(O)O[C@@H]2CO)[C@H](O)[C@@H](O)[C@@H]1O; assay: as above; format: biochemical, Orpinomyces sp. strain PC-2; conditions: other: 40° C. and pH 6.0
# Protocol: as §1
# [12] = read-out: Cellobiose affinity (Km)
# [13] = read-out: Glucose inhibition (Ki)
molecule,measurement,setting,value
"O=[N+]([O-])c1ccc(O[C@@H]2O[C@H](CO)[C@@H](O)[C@H](O)[C@H]2O)cc1 [pNPG, .rho.-nitrophenyl-β-D-glucoside, reference compound]",Km,[1]; read-out: Km (pNPG as substrate),350 µM
"O=C1O[C@H](CO)[C@@H](O)[C@H](O)[C@H]1O [glucono-1,5-lactone, reference compound]",Ki,"[2]; competitive inhibition, pNPG and cellobiose as substrates, read-out: Ki of glucono-1,5-lactone",50 µM
"OC[C@H]1O[C@@H](O[C@H]2[C@H](O)[C@@H](O)C(O)O[C@@H]2CO)[C@H](O)[C@@H](O)[C@@H]1O (stereo partly drawn) [Cellobiose, cellobiose (β-1,4-glucobiose)]",Km,[1]; [12],250 µM
same,Km,[3]; [12],2100 µM
same,Km,[4],890 µM
same,Km,[5]; [12],1000 µM
same,Km,[6]; [12],5650 µM
same,Km,[7]; [12],19000 µM
same,Km,[8]; [12],830 µM
same,Km,[9],77000 µM
OC[C@H]1OC(O)[C@H](O)[C@@H](O)[C@@H]1O (stereo partly shown) [Glucose],Ki,[2],3600 µM
same,Ki,[1]; [13],8750 µM
same,Ki,[3]; [13],620 µM
same,Ki,[5]; [13],5480 µM
same,Ki,[6]; [13],1000 µM
same,Ki,[7]; [13],420 µM
same,Ki,[8]; [13],500 µM
"Orpinomyces sp. strain PC-2 β-glucosidase BglA, recombinant, secreted from S. cerevisiae, SEQ ID NO:2 (Orpinomyces sp. PC-2) (protein) KKCIVKSDAAVASEAEEVTAELTAPEDSGVESGEDDELLDLSTIDYGDDVDMSTVKKLPADFKWGAATAAYQVEGAWDEEGRGESVWDHFTHLYPKNVESGDRSKDFSTNGNIACDSYHKFDEDVKMLKLMNAKYYRFSISWPRLFPDGQARKVDGKWNVNEKGAEYYDMVINTLLKNDIVPFVTLYHWDLPYALHEKYGGWLDYHSQDDFAKYAEFCFERFGDRVKNWITINEPWVNCVSGYRLGPGKAPYRCTGEAPRKLQNSTDLDLEGGCSYEIGPTQYSKNSEPLPANRVPQKLEDVWCSHNILLGHAKAVKVYREKFQKKQKGLIGITVDGEAQIPWVEPGMTKKEYENNLKYANLAAEFRIGWYSDPPMVGDYPKSVKERMGKDLPEFTEEEKKILKGSSSDFLGWNTYTAHWAAQAKNEDGSYIQPPTAEEANFDNSKKDMWDDNCKGRGDGWTCIPPTLGSQAGSSWNTKFAPTIRVGLNWFSKRYEGLIKNGIVITENGCAQPNYKVARANDEVTKKYFESIGQPKYADTYKEEDIEREDNLEGTLMHDTYRIDWYDQYLKNLRLAYAVDNIDVRGYMAWSLLDNFEWENGYETRFGMTYIDFYNDKEMKRVPKDSLEHLGQWYLENVEQN",Km,[10],762 µM
same,Km,[11],310 µM

# — patent US6184018A, “β-glucosidase coding sequences and protein from orpinomyces PC-2” (University of Georgia Research Foundation, Inc., priority 1999, dated 2001)
